What was measured:
[1] = molecular target: T1, Carbonic anhydrase 1 (Homo sapiens, UniProt P00915); assay: Inhibition of recombinant human carbonic anhydrase-1 incubated for 15 mins by stopped flow CO2 hydrase assay
[2] = molecular target: T2, Carbonic anhydrase 2 (Homo sapiens, UniProt P00918); assay: Inhibition of recombinant human carbonic anhydrase-2 incubated for 15 mins by stopped flow CO2 hydrase assay
[3] = molecular target: T3, Carbonic anhydrase 9 (Homo sapiens, UniProt Q16790); assay: Inhibition of recombinant human carbonic anhydrase-9 incubated for 15 mins by stopped flow CO2 hydrase assay
[4] = molecular target: T1, Carbonic anhydrase 1; assay: Inhibition of recombinant human carbonic anhydrase-1 at 0.01 uM after 15 mins by stopped flow CO2 hydrase assay (reference value: 0%)
[5] = molecular target: T1, Carbonic anhydrase 1; assay: Inhibition of recombinant human carbonic anhydrase-1 at 0.1 uM after 15 mins by stopped flow CO2 hydrase assay (reference value: 0%)
[6] = molecular target: T1, Carbonic anhydrase 1; assay: Inhibition of recombinant human carbonic anhydrase-1 at 1 uM after 15 mins by stopped flow CO2 hydrase assay (reference value: 0%)
[7] = molecular target: T1, Carbonic anhydrase 1; assay: Inhibition of recombinant human carbonic anhydrase-1 at 10 uM after 15 mins by stopped flow CO2 hydrase assay (reference value: 0%)
[8] = molecular target: T2, Carbonic anhydrase 2; assay: Inhibition of recombinant human carbonic anhydrase-2 at 0.01 uM after 15 mins by stopped flow CO2 hydrase assay (reference value: 0%)
[9] = molecular target: T2, Carbonic anhydrase 2; assay: Inhibition of recombinant human carbonic anhydrase-2 at 0.1 uM after 15 mins by stopped flow CO2 hydrase assay (reference value: 0%)
[10] = molecular target: T2, Carbonic anhydrase 2; assay: Inhibition of recombinant human carbonic anhydrase-2 at 1 uM after 15 mins by stopped flow CO2 hydrase assay (reference value: 0%)
[11] = molecular target: T2, Carbonic anhydrase 2; assay: Inhibition of recombinant human carbonic anhydrase-2 at 10 uM after 15 mins by stopped flow CO2 hydrase assay (reference value: 0%)
[12] = molecular target: T3, Carbonic anhydrase 9; assay: Inhibition of recombinant human carbonic anhydrase-9 at 0.1 nM after 15 mins by stopped flow CO2 hydrase assay (reference value: 0%)
[13] = molecular target: T3, Carbonic anhydrase 9; conditions: at 1 nM
Description: Inhibition of recombinant human carbonic anhydrase-9 at 1 nM after 15 mins by stopped flow CO2 hydrase assay (Rvb = 0%)

[14] = molecular target: T3, Carbonic anhydrase 9; conditions: at 0.01 µM
Description: Inhibition of recombinant human carbonic anhydrase-9 at 0.01 uM after 15 mins by stopped flow CO2 hydrase assay (Rvb = 0%)

[15] = molecular target: T3, Carbonic anhydrase 9; conditions: at 0.1 µM
Description: Inhibition of recombinant human carbonic anhydrase-9 at 0.1 uM after 15 mins by stopped flow CO2 hydrase assay (Rvb = 0%)

T1 sequence (P00915 whole entry): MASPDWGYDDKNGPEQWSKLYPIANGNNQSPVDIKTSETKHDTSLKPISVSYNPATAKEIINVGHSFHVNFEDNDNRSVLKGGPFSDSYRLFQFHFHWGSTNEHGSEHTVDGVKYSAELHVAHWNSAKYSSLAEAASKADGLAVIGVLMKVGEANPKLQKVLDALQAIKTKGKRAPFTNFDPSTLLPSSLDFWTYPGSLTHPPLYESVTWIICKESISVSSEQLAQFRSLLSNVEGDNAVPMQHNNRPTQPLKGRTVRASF

Compound	Ki [1] [nM]	Ki [2] [nM]	Ki [3] [nM]	further results
Cc1cc(=O)n2c(C(=O)NN)nn(-c3ccc(S(N)(=O)=O)cc3)c2n1	1680	74.7	45.4	
CC(=O)OC[C@@H]1O[C@@H](OCc2cn(-c3ccc(S(N)(=O)=O)cc3)nn2)[C@@H](OC(C)=O)[C@H](OC(C)=O)[C@H]1OC(C)=O			9.7	
Nc1nc(C(=O)N/N=C/c2ccccc2)nn1-c1ccc(S(N)(=O)=O)cc1	771	86.4	41.1	
Nc1nc(NC(=O)Nc2ccc(F)cc2)nn1-c1ccc(S(N)(=O)=O)cc1	94.4	65.5	7.8	
COc1ccc(/C=N/NC(=O)c2nn(-c3ccc(S(N)(=O)=O)cc3)c3nc(C)cc(=O)n23)cc1	2380	325	63.2	
Nc1nc(C(=O)N/N=C/c2ccc(Cl)cc2)nn1-c1ccc(S(N)(=O)=O)cc1	703	6.9	73.2	
C/C(=N\NC(=O)c1nc(N)n(-c2ccc(S(N)(=O)=O)cc2)n1)c1ccccc1	633	8.9	41.3	
Nc1nc(NC(=O)Nc2ccc(Cl)cc2)nn1-c1ccc(S(N)(=O)=O)cc1	403	9.5	43.3	
C/C(=N\NC(=O)c1nc(N)n(-c2ccc(S(N)(=O)=O)cc2)n1)c1ccncc1	295	8.5	5.8	
NNC(=O)c1nc(N)n(-c2ccc(S(N)(=O)=O)cc2)n1	523	19.9	22.8	
Cc1ccc(NC(=O)Nc2nc(N)n(-c3ccc(S(N)(=O)=O)cc3)n2)cc1	313	42.8	3.9	
Nc1nc(C(=O)N/N=C/c2cccnc2)nn1-c1ccc(S(N)(=O)=O)cc1	477	74.2	6.6	
Cc1cc(=O)n2c(C(=O)N/N=C/c3ccc(N4CCN(C)CC4)cc3)nn(-c3ccc(S(N)(=O)=O)cc3)c2n1	4950	838	85	
Nc1nc(C(=O)NNC(=S)Nc2ccccc2)nn1-c1ccc(S(N)(=O)=O)cc1	368	9.7	40.2	
Nc1nc(C(=O)NNC(=S)Nc2ccc(Cl)cc2)nn1-c1ccc(S(N)(=O)=O)cc1	598	11.1	16.7	
Cc1cc(=O)n2c(C(=O)N/N=C/c3ccncc3)nn(-c3ccc(S(N)(=O)=O)cc3)c2n1	2480	456	24.6	

Compound	Ki [1] [nM]	Ki [2] [nM]	Ki [3] [nM]	further results
Nc1nc(C(=O)N/N=C/c2ccc(O)cc2)nn1-c1ccc(S(N)(=O)=O)cc1	335	8.8	8.3	
NS(=O)(=O)c1ccc(-n2nnc(C(=O)N/N=C(/CC(=O)c3ccccn3)C(F)(F)F)c2-c2ccccc2)cc1			0.7	
Nc1nc(C(=O)N/N=C/c2ccc(F)cc2)nn1-c1ccc(S(N)(=O)=O)cc1	495	65.2	31.5	
Nc1nc(C(=O)N/N=C/c2ccc(N3CCCCC3)cc2)nn1-c1ccc(S(N)(=O)=O)cc1	825	95.4	33	
Nc1nc(NC(=O)Nc2ccccc2)nn1-c1ccc(S(N)(=O)=O)cc1	442	9.8	8.2	
Nc1nc(C(=O)NNC(=O)Nc2ccccc2)nn1-c1ccc(S(N)(=O)=O)cc1	307	70.5	4.9	
C/C(=N\NC(=O)c1nc(N)n(-c2ccc(S(N)(=O)=O)cc2)n1)c1ccc(N2CCOCC2)cc1	793	53.9	31.7	
Nc1nc(C(=O)NNC(=O)Nc2ccc(Cl)cc2)nn1-c1ccc(S(N)(=O)=O)cc1	537	10.9	16.4	
COc1ccc(NC(=O)Nc2nc(N)n(-c3ccc(S(N)(=O)=O)cc3)n2)cc1	695	127	3.3	inhibition at 0.25 h, 0.01 µM [4]: 14%; inhibition at 0.25 h, 0.1 µM [5]: 31%; inhibition at 0.25 h, 1 µM [6]: 63%; inhibition at 0.25 h, 10 µM [7]: 75%; inhibition at 0.25 h, 0.01 µM [8]: 15%; inhibition at 0.25 h, 0.1 µM [9]: 48%; inhibition at 0.25 h, 1 µM [10]: 76%; inhibition at 0.25 h, 10 µM [11]: 85%; inhibition [12]: 18 to 20%; inhibition [13]: 45 to 47%; inhibition [14]: 72 to 74%; inhibition [15]: 79 to 81%
Nc1nc(C(=O)N/N=C/c2ccc(N3CCOCC3)cc2)nn1-c1ccc(S(N)(=O)=O)cc1	988	64.2	19.7	
Nc1nc(C(=O)N/N=C/c2ccc([N+](=O)[O-])cc2)nn1-c1ccc(S(N)(=O)=O)cc1	1540	24.7	34.4	
Nc1nc(NC(=O)Nc2ccc(S(N)(=O)=O)cc2)nn1-c1ccc(S(N)(=O)=O)cc1	677	78.7	28.6	
Cc1cc(=O)n2c(C(=O)N/N=C/c3ccccn3)nn(-c3ccc(S(N)(=O)=O)cc3)c2n1	3720	537	47.9	
COC(=O)c1nn(-c2ccc(S(N)(=O)=O)cc2)c2nc3cc(-c4cccs4)cc(-c4ccc([N+](=O)[O-])cc4)c3c(=O)n12			0.16	
Nc1nc(NC(=O)Nc2ccc(C(=O)O)cc2)nn1-c1ccc(S(N)(=O)=O)cc1	507	9.6	15.3	
CCOC(=O)c1nn(-c2ccc(S(N)(=O)=O)cc2)c2nc(C)cc(=O)n12	698	85.6	35.9	
